Results published in patent publication US20160031868A1, “BENZIMIDAZOLONE DERIVATIVES AS BROMODOMAIN INHIBITORS” (GILEAD SCIENCES, INC., priority 2013, published 2016).

Assays:
[1] = target: T1, BRD4-1 (Homo sapiens, UniProt O60885); experiment: Biochemical ALPHA assay: binding of BRD4_1 to acetylated histone H4 peptide; conditions: 200 nM H4 peptide, 15 nM BRD4_1, 60 min at 25 °C; geometric mean of min. four determinations
T1 construct: made in house; host or cells: Escherichia coli
Experimental: Binding of the bromodomain BRD4_I to an acetylated histone H4 peptide was measured using a bead based Amplified Luminescent Proximity Homogeneous Assay (ALPHA). The synthetic peptide containing amino acids 1-18 of histone H4 was acetylated at lysine 5, 8, 12, 16 and conjugated to biotin ([…]-GSGSK-biotin) was purchased from Millipore. BRD4_I was expressed and purified from Escherichia coli as an N-terminal Hiss-tagged protein. Nickel-Chelate ALPHA acceptor beads (Perkin Elmer) were used to specifically bind BRD4—1 and ALPHA streptavidin donor beads (Perkin Elmer) were used because they specifically recognized the biotinylated H4 peptide. […] Assays were performed in 50 mM Hepes (pH 7.5), 150 mM NaCl, 0.1 mg/ml BSA, 0.01% (v/v) Brij, 0.5% (v/v) DMSO, 200 nM H4 peptide and 15 nM of BRD4—1 protein. After an assay reaction time of 60 minutes at 25° C., binding was measured with 20 µg/ml streptavidin donor beads and 20 μg/ml nickel-chelate acceptor beads. ALPHA signal was detected on an Envision plate reader ([…]; Em: 570 nm; Ex time: 180 ms). Data were normalized based on a positive (2 μM I-BET) and negative (DMSO) controls and IC50 values were calculated from the fit of the dose-response curves to a four-parameter equation. All IC50 values represent geometric mean values of a minimum of four determinations. These assays generally produced results within 3-fold of the reported mean.

[2] = tested on: MT-4 cells; experiment: MT-4 proliferation assay in 384-well format (Cell Titer Glo); format: cell-based, human; conditions: Table 1, 5 days, 50% decrease in luminescence signal, read-out: CC50 MT4 384
Experimental: (§1) Compounds were tested in a standardized high-throughput 384-well assay format. Each compound was serially diluted 3-fold in 100% DMSO in polypropylene 384-well plates using a Biomek FX Workstation, and 0.4 μL compound added to an assay plate containing 40 μL RPMI media. Compounds were arranged in a horizontal pattern, with 10 concentrations per compound, and 8 compounds added per plate. Due to low DMSO tolerability, the final DMSO concentration never exceeded 0.5% (v/v). Each assay plate contained 10 μM Puromycin and 0.5% DMSO in RPMI-1640 as positive and negative controls respectively. MT-4 cells (HTLV-1 transformed, human T lymphoblastoid cells, NIH Aids Reagent program) were added in volumes of 35 μL per well and 2,000 cells per well using a Biotek uFlow Workstation (Biotek, Winooski, Vt.), and the plates subsequently incubated for 5 days at 37° C. in an incubator set at 5% CO2 and 90% humidity.
(§2) After 5 days, 22 μL Cell Titer Glo (Promega) was added to the assay plates with a Biotek uFlow Workstation. Plates were subsequently placed on a Perkin Elmer Envision Plate Reader for 5 minutes before the luminescence signal was read. CC50 values were calculated from the compound concentration that caused a 50% decrease in luminescence signal, a measure of toxicity, and calculated by non-linear regression using Pipeline Pilot software (Accelrys, San Diego, Calif.).

[3] = target: T1, BRD4-1; experiment: Biochemical HTRF (TR-FRET) assay: BRD4-1 binding to acetylated histone H4 peptide; conditions: 200 nM H4 peptide, 60 nM BRD4-1, 60 min at 25 °C; geometric mean; read-out: IC50 HTBS BRD4-1 HTRF
Experimental: (§3) Binding of the two tandem bromodomains, BRD4 I and BRD4—2, to an acetylated histone H4 peptide were measured using a homogeneous time resolved fluorescence resonance energy transfer (TR-FRET) assay. The synthetic peptide containing amino acids 1-18 of histone H4 was acetylated at lysine 5, 8, 12, 16 and conjugated to biotin ([…]-GSGSK-biotin) was purchased from Millipore. BRD4_I and BRD4—2 were expressed and purified from Escherichia coli as N-terminal His6-tagged proteins. An XL665 labeled anti-His antibody (Cisbio) was used to specifically bind BRD4 and a cryptate labeled streptavidin protein was used because it specifically recognized the biotinylated H4 peptide. […] Assays were performed in 50 mM Hepes (pH 7.5), 150 mM NaCl, 0.1 mg/ml BSA, 0.01% (v/v) Brij, 0.5% (v/v) DMSO and 200 nM H4 peptide at the following concentrations for each BRD4 isoform: 60 nM BRD4—1 and 120 nM BRD4—2. After an assay reaction time of 60 minutes at 25° C., binding was measured with 2 nM cryptate labeled streptavidin and 10 nM anti-His-XL665 antibody. TR-FRET signal was detected on an Envision plate reader (Ex: 320 nm; Em: 615/665 nm; 100 μs delay and 200 μs read window). Data were normalized based on a positive (2 μM I-BET) and negative (DMSO) controls and IC50 values were calculated from the fit of the dose-response curves to a four-parameter equation. All IC50 values represent geometric mean values of a minimum of four determinations. These assays generally produced results within 3-fold of the reported mean.

[4] = target: T2, BRD4-2 (Homo sapiens, UniProt O60885); experiment: Biochemical HTRF (TR-FRET) assay: BRD4-2 binding to acetylated histone H4 peptide; conditions: 200 nM H4 peptide, 120 nM BRD4-2, 60 min at 25 °C; geometric mean; read-out: IC50 HTBS BRD4-2 HTRF
T2 construct: made in house; host or cells: Escherichia coli
Experimental: as §3

[5] = MT-4 proliferation assay in 384-well format (Cell Titer Glo); format: cell-based, human; conditions: human, MT-4 cells, Table 1, 50% decrease in luminescence signal, read-out: CC50 MT4 384
Experimental: as §1, §2

SMILES | IC50 [1] [nM] | CC50 [2] [nM] | IC50 [3] [nM] | IC50 [4] [nM] | CC50 at 5 days [5] [nM]
Cc1ccc2ncccc2c1-c1cc(-c2c(C)noc2C)cc2[nH]c(=O)[nH]c12 (single isomer, unassigned) [Example 13] | 45.2 | 51.6 | – | – | –
Cc1ccc2ncccc2c1-c1cc(-c2c(C)noc2C)cc2[nH]c(=O)[nH]c12 (single isomer, unassigned) [Example 14] | 14 | 9.54 | – | – | –
Cc1noc(C)c1-c1cc(-c2cccc3c2CCC(=O)N3C)c2[nH]c(=O)[nH]c2c1 [Example 6, 5-(6-(3,5-dimethylisoxazol-4-yl)-2-oxo-2,3-dihydro-1H-benzo[d]imidazol-4-yl)-1-methyl-3,4-dihydroquinolin-2(1H)-one] | 46.8 | – | 132 | 108 | 53.9
Cc1ccc2ncccc2c1-c1cc(-c2c(C)noc2C)cc2[nH]c(=O)n(C)c12 [Example 7, 5-(3,5-dimethylisoxazol-4-yl)-1-methyl-7-(6-methylquinolin-5-yl)-1H-benzo[d]imidazol-2(3H)-one] | 37.3 | – | 121 | 101 | 17.5
Cc1cnn(C)c1-c1cc(-c2c(C)noc2C)cc2[nH]c(=O)n(C)c12 [Example 8, 7-(1,4-dimethyl-1H-pyrazol-5-yl)-5-(3,5-dimethylisoxazol-4-yl)-1-methyl-1H-benzo[d]imidazol-2(3H)-one] | 241 | – | 511 | 168 | 117
Cc1noc(C)c1-c1cc(-c2c(C)noc2C)c2c(c1)[nH]c(=O)n2C [Example 9] | 270 | – | 497 | 227 | 204
Cc1noc(C)c1-c1cc(-c2c(C)noc2C)c2oc(=O)[nH]c2c1 [Example 10, 5,7-bis(3,5-dimethylisoxazol-4-yl)benzo[d]oxazol-2(3H)-one] | 196 | – | 313 | 396 | 1030
Cc1ccc2ncccc2c1-c1cc(-c2c(C)noc2C)cc2[nH]c(=O)oc12 [Example 11, 5-(3,5-dimethylisoxazol-4-yl)-7-(6-methylquinolin-5-yl)benzo[d]oxazol-2(3H)-one] | 222 | – | 438 | 174 | 421
Cc1noc(C)c1-c1cc(-c2cccnc2-c2ccccc2)c2oc(=O)[nH]c2c1 [Example 12, 5-(3,5-dimethylisoxazol-4-yl)-7-(2-phenylpyridin-3-yl)benzo[d]oxazol-2(3H)-one] | 233 | – | 316 | 314 | 761
